Test results taken from PubChem BioAssay AID1259407 (Chemical Carcinogenesis Research Information System (CCRIS), 2018).
Active and inactive are the calls of the source. The rule behind the calls is not given here.

Test system: CCRIS mutagenicity, Ames/micronucleus/aberration tests
Assay: CCRIS mutagenicity studies
[1] = Test System: AMES SALMONELLA TYPHIMURIUM, Strain/Indicator: TA100, Metabolic Activation: NONE, Method: STANDARD PLATE
[2] = Test System: AMES SALMONELLA TYPHIMURIUM, Strain/Indicator: TA98, Metabolic Activation: NONE, Method: PREINCUBATION
[3] = Test System: AMES SALMONELLA TYPHIMURIUM, Strain/Indicator: TA100, Metabolic Activation: NONE, Method: PREINCUBATION
[4] = Test System: AMES SALMONELLA TYPHIMURIUM, Strain/Indicator: TA100, Metabolic Activation: RAT, LIVER, S-9, AROCLOR 1254, Method: STANDARD PLATE
[5] = Test System: AMES SALMONELLA TYPHIMURIUM, Strain/Indicator: TA1537, Metabolic Activation: NONE, Method: STANDARD PLATE
[6] = Test System: AMES SALMONELLA TYPHIMURIUM, Strain/Indicator: TA1537, Metabolic Activation: RAT, LIVER, S-9, AROCLOR 1254, Method: STANDARD PLATE

With `C[n+]1ccc(-c2cc[n+](C)cc2)cc1` the mutagenic call (End Point: IN VIVO MICRONUCLEUS, Test System: BONE MARROW POLYCHROMATIC ERYTHROCYTES, Species: RAT, Strain/Sex: SPRAGUE DAWLEY/MALE, Route: DERMAL) was “active; positive; maximal response at 48 hr”, the mutagenic call (Test System: AMES SALMONELLA TYPHIMURIUM, Strain/Indicator: TA102, Metabolic Activation: NONE, Method: STANDARD PLATE) was “inactive; negative” and the mutagenic call (Test System: AMES SALMONELLA TYPHIMURIUM, Strain/Indicator: TA2638, Metabolic Activation: NONE, Method: STANDARD PLATE) was “inactive; negative”. The mutagenic call (Test System: CHINESE HAMSTER G10, Strain/Indicator: G10 (GPT)/6-THIOGUANINE, Metabolic Activation: NONE) was “inactive; negative”, the mutagenic call (Test System: CHINESE HAMSTER G12, Strain/Indicator: G12 (GPT)/6-THIOGUANINE, Metabolic Activation: NONE) was “inactive; negative” and the mutagenic call (Test System: CHINESE HAMSTER V-79, Strain/Indicator: V-79 (HPRT)/6-THIOGUANINE, Metabolic Activation: NONE) was “inactive; negative”. For the same compound, the mutagenic call (Test System: E. COLI, Strain/Indicator: WP2 (PKM101), Metabolic Activation: NONE, Method: STANDARD PLATE) was “inactive; negative” and the mutagenic call (Test System: E. COLI, Strain/Indicator: WP2 UVRA (PKM101), Metabolic Activation: NONE, Method: STANDARD PLATE) was “inactive; negative”.

`CCN[C@@H](C)C[C@H](C)NCC.[Cl-].[Cl-].[Pt+2]` was tested, and the mutagenic call (Test System: AMES SALMONELLA TYPHIMURIUM, Strain/Indicator: TA97A, Metabolic Activation: NONE, Method: STANDARD PLATE) was “active; positive” and the mutagenic call [1] was “active; positive”.

For `CCOP(=S)(OCC)Oc1ccc([N+](=O)[O-])cc1`, the mutagenic call [2] was “inactive; negative”, the mutagenic call (Test System: AMES SALMONELLA TYPHIMURIUM, Strain/Indicator: TA98, Metabolic Activation: RAT, LIVER, S-9, KANECHLOR 500, Method: PREINCUBATION) was “inactive; negative” and the mutagenic call [3] was “active; positive”. For the same compound, the mutagenic call [1] was “inactive; negative”, the mutagenic call (Test System: AMES SALMONELLA TYPHIMURIUM, Strain/Indicator: TA100, Metabolic Activation: RAT, LIVER, S-9, KANECHLOR 500, Method: PREINCUBATION) was “active; positive” and the mutagenic call (Test System: AMES SALMONELLA TYPHIMURIUM, Strain/Indicator: TA100, Metabolic Activation: S-9, Method: STANDARD PLATE) was “active; positive”.

In the case of `Cc1cc(=O)oc2cc(O)cc(O)c12`, the mutagenic call (Test System: AMES SALMONELLA TYPHIMURIUM, Strain/Indicator: TA98, Metabolic Activation: HAMSTER, LIVER, S-9, AROCLOR 1254, Method: PREINCUBATION) was “inactive; negative”, the mutagenic call [2] was “inactive; negative” and the mutagenic call (Test System: AMES SALMONELLA TYPHIMURIUM, Strain/Indicator: TA98, Metabolic Activation: RAT, LIVER, S-9, AROCLOR 1254, Method: PREINCUBATION) was “inactive; negative”. For the same compound, the mutagenic call (Test System: AMES SALMONELLA TYPHIMURIUM, Strain/Indicator: TA100, Metabolic Activation: HAMSTER, LIVER, S-9, AROCLOR 1254, Method: PREINCUBATION) was “inactive; negative”, the mutagenic call [3] was “inactive; negative” and the mutagenic call (Test System: AMES SALMONELLA TYPHIMURIUM, Strain/Indicator: TA100, Metabolic Activation: RAT, LIVER, S-9, AROCLOR 1254, Method: PREINCUBATION) was “inactive; negative”. The mutagenic call (Test System: AMES SALMONELLA TYPHIMURIUM, Strain/Indicator: TA1535, Metabolic Activation: HAMSTER, LIVER, S-9, AROCLOR 1254, Method: PREINCUBATION) was “inactive; negative”, the mutagenic call (Test System: AMES SALMONELLA TYPHIMURIUM, Strain/Indicator: TA1535, Metabolic Activation: NONE, Method: PREINCUBATION) was “inactive; negative” and the mutagenic call (Test System: AMES SALMONELLA TYPHIMURIUM, Strain/Indicator: TA1535, Metabolic Activation: RAT, LIVER, S-9, AROCLOR 1254, Method: PREINCUBATION) was “inactive; negative”. The mutagenic call (Test System: AMES SALMONELLA TYPHIMURIUM, Strain/Indicator: TA1537, Metabolic Activation: HAMSTER, LIVER, S-9, AROCLOR 1254, Method: PREINCUBATION) was “inactive; negative”, the mutagenic call (Test System: AMES SALMONELLA TYPHIMURIUM, Strain/Indicator: TA1537, Metabolic Activation: NONE, Method: PREINCUBATION) was “inactive; negative” and the mutagenic call (Test System: AMES SALMONELLA TYPHIMURIUM, Strain/Indicator: TA1537, Metabolic Activation: RAT, LIVER, S-9, AROCLOR 1254, Method: PREINCUBATION) was “inactive; negative”.

`c1ccc2c(c1)sc1ccccc12` was tested, and the mutagenic call (Test System: CHINESE HAMSTER OVARY, Strain/Indicator: CHO-K1-BH4 (HGPRT)/6-THIOGUANINE, Metabolic Activation: RAT, LIVER, S-9, AROCLOR (4%)) was “inactive; negative”.

In the case of `O=C(O)CCc1ccccc1`, the mutagenic call (Test System: AMES SALMONELLA TYPHIMURIUM, Strain/Indicator: TA98, Metabolic Activation: HAMSTER, LIVER, S-9, AROCLOR 1254, Method: STANDARD PLATE) was “inactive; negative”, the mutagenic call (Test System: AMES SALMONELLA TYPHIMURIUM, Strain/Indicator: TA98, Metabolic Activation: NONE, Method: STANDARD PLATE) was “inactive; negative” and the mutagenic call (Test System: AMES SALMONELLA TYPHIMURIUM, Strain/Indicator: TA98, Metabolic Activation: RAT, LIVER, S-9, AROCLOR 1254, Method: STANDARD PLATE) was “inactive; negative”. The mutagenic call (Test System: AMES SALMONELLA TYPHIMURIUM, Strain/Indicator: TA100, Metabolic Activation: HAMSTER, LIVER, S-9, AROCLOR 1254, Method: STANDARD PLATE) was “inactive; negative”, the mutagenic call [1] was “inactive; negative” and the mutagenic call [4] was “inactive; negative”. For the same compound, the mutagenic call (Test System: AMES SALMONELLA TYPHIMURIUM, Strain/Indicator: TA1535, Metabolic Activation: HAMSTER, LIVER, S-9, AROCLOR 1254, Method: STANDARD PLATE) was “inactive; negative”, the mutagenic call (Test System: AMES SALMONELLA TYPHIMURIUM, Strain/Indicator: TA1535, Metabolic Activation: NONE, Method: STANDARD PLATE) was “inactive; negative” and the mutagenic call (Test System: AMES SALMONELLA TYPHIMURIUM, Strain/Indicator: TA1535, Metabolic Activation: RAT, LIVER, S-9, AROCLOR 1254, Method: STANDARD PLATE) was “inactive; negative”. For the same compound, the mutagenic call (Test System: AMES SALMONELLA TYPHIMURIUM, Strain/Indicator: TA1537, Metabolic Activation: HAMSTER, LIVER, S-9, AROCLOR 1254, Method: STANDARD PLATE) was “inactive; negative”, the mutagenic call [5] was “inactive; negative” and the mutagenic call [6] was “inactive; negative”. The mutagenic call (Test System: AMES SALMONELLA TYPHIMURIUM, Strain/Indicator: TA1538, Metabolic Activation: HAMSTER, LIVER, S-9, AROCLOR 1254, Method: STANDARD PLATE) was “inactive; negative”, the mutagenic call (Test System: AMES SALMONELLA TYPHIMURIUM, Strain/Indicator: TA1538, Metabolic Activation: NONE, Method: STANDARD PLATE) was “inactive; negative” and the mutagenic call (Test System: AMES SALMONELLA TYPHIMURIUM, Strain/Indicator: TA1538, Metabolic Activation: RAT, LIVER, S-9, AROCLOR 1254, Method: STANDARD PLATE) was “inactive; negative”. For the same compound, the mutagenic call (Test System: MOUSE LYMPHOMA, Strain/Indicator: L5178Y (TK+/TK-), Metabolic Activation: NONE, Method: SUSPENSION/PLATE) was “inactive; negative. reevaluation of results: negative” and the mutagenic call (Test System: MOUSE LYMPHOMA, Strain/Indicator: L5178Y (TK+/TK-), Metabolic Activation: RAT, LIVER, S-9, AROCLOR 1254, Method: SUSPENSION/PLATE) was “inactive; negative. reevaluation of results: negative”.

With `CCN(CC)c1ccc(N=Nc2ccccc2)cc1` the mutagenic call (Test System: AMES SALMONELLA TYPHIMURIUM, Strain/Indicator: TA98, Metabolic Activation: RAT, LIVER, MICROSOMES, 4-DIETHYLAMINOAZOBENZENE, Method: PREINCUBATION) was “inactive; negative”, the mutagenic call (Test System: AMES SALMONELLA TYPHIMURIUM, Strain/Indicator: TA98, Metabolic Activation: RAT, LIVER, MICROSOMES, AROCLOR 1254, Method: PREINCUBATION) was “inactive; negative” and the mutagenic call (Test System: AMES SALMONELLA TYPHIMURIUM, Strain/Indicator: TA98, Metabolic Activation: RAT, LIVER, MICROSOMES, Method: PREINCUBATION) was “inactive; negative”.

`O=C1Nc2cc3ccccc3c3c4c(cc1c23)OCO4` was tested, and the mutagenic call [1] was “inactive; negative”, the mutagenic call [4] was “active; positive” and the mutagenic call [5] was “inactive; negative”. For the same compound, the mutagenic call [6] was “active; positive”.
